Read-outs that look alike come from different tables or passages of the source.
Legend:
HvTHT7 = test system: T1, HvTHT7; test: LC-MS/MS (MRM) of amide product; format: biochemical, Hordeum vulgare; details: 100 mM Tris-HCl pH 8.0, 35 °C, read-out: HvTHT7 / K m
T1 construct: His-GST-tagged (pCold GST), E. coli BL21, TALON-purified; HvTHT7 plasmid made by site-directed mutagenesis of HvTHT8; differs from HvTHT8 only at residue 166 (His/Arg)
Description: LC-MS/MS (MRM) of amide product on HvTHT7

HvTHT8 = test system: T2, HvTHT8; test: LC-MS/MS (MRM) of amide product; format: biochemical, Hordeum vulgare; details: 100 mM Tris-HCl pH 8.0, 35 °C, read-out: HvTHT8 / K m
T2 construct: His-GST-tagged (pCold GST), E. coli BL21, TALON-purified; differs from HvTHT7 only at residue 166 (His/Arg)
Description: LC-MS/MS (MRM) of amide product on HvTHT8

[1] = acyl acceptor, 200 µM cinnamoyl-CoA

SMILES	Km (HvTHT7; [1])	Km (HvTHT8; [1])	Km (HvTHT7; acyl donor, 1 mM tryptamine)	Km (HvTHT8; acyl donor, 1 mM tryptamine)
NCCc1c[nH]c2ccccc12 [Tryptamine]	59.2 µM	60.6 µM	–	–
COc1cc(/C=C/C(=O)SCCNC(=O)CCNC(=O)[C@H](O)C(C)(C)COP(=O)(O)OP(=O)(O)OC[C@H]2O[C@@H](n3cnc4c(N)ncnc43)[C@H](O)[C@@H]2OP(=O)(O)O)ccc1O [Feruloyl-CoA]	–	–	32.6 µM	36.7 µM
NCCc1c[nH]c2ccc(O)cc12 [Serotonin]	385 µM	347 µM	–	–
NCC(=O)c1c[nH]c2ccccc12 [8-Oxotryptamine]	53.1 µM	54.9 µM	–	–
CC(C)(COP(=O)(O)OP(=O)(O)OC[C@H]1O[C@@H](n2cnc3c(N)ncnc32)[C@H](O)[C@@H]1OP(=O)(O)O)[C@@H](O)C(=O)NCCC(=O)NCCSC(=O)/C=C/c1ccc(O)cc1 [Coumaroyl-CoA]	–	–	39.2 µM	35.5 µM
NCc1c[nH]c2ccccc12 [IMA, (1H-indol-3-yl)methylamine]	54.2 µM	33.9 µM	–	–
CC(C)(COP(=O)(O)OP(=O)(O)OC[C@H]1O[C@@H](n2cnc3c(N)ncnc32)[C@H](O)[C@@H]1OP(=O)(O)O)[C@@H](O)C(=O)NCCC(=O)NCCSC(=O)/C=C/c1ccccc1 [Cinnamoyl-CoA]	–	–	64.2 µM	62.1 µM

— PMC6888128, “Biosynthesis of Phenylamide Phytoalexins in Pathogen-Infected Barley” (International Journal of Molecular Sciences, 2019)
